Results taken from article PMC6662822, “Rational drug-design approach supported with thermodynamic studies — a peptide leader for the efficient bi-substrate inhibitor of protein kinase CK2” (Scientific Reports, 2019).
Where a SMILES comes first, the peptide text is derived from it. Where no end group is shown, it is not given here. The star is where a group is joined. X1 = O=C(c1c(Br)c(Br)c(Br)c2nn[nH]c12)*

Columns and labels:
hCK2α [1] = molecular target: T1, hCK2α (Homo sapiens, UniProt P68400); assay: ADP-Glo kinase assay, inhibitory activity towards human CK2α; type: biochemical
T1 construct: His-tag; made in house
T1 sequence (P68400 whole entry): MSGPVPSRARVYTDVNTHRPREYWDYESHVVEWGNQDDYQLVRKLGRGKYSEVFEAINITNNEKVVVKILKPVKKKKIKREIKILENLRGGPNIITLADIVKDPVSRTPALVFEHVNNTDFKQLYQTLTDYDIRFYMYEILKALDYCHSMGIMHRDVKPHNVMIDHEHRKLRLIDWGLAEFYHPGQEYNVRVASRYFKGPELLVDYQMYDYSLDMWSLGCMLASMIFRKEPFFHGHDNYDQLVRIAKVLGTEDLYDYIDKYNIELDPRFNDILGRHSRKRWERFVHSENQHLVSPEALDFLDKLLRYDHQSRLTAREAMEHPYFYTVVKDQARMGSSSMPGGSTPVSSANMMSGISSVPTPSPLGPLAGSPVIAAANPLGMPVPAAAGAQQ
Protocol: The ADP-Glo kinase assay (Promega) was used to measure the inhibition effect of the tested compounds. The kinase assay was carried in 96-well plate in volume of 25 μl in 20 mM Tris–HCl (pH 7.5) buffer, containing 100 ng hCK2α (1 μl), 10 μM CK2 substrate peptide […] (Biaffin GmbH & Co KG), 10 μM ATP, 20 mM MgCl2 and 2.5 μl of serially diluted ligand in DMSO. The reaction was initiated with enzyme in and kept going for 20 min at 30 °C. Reaction was stopped by adding 25 μl of ADP-Glo reagent. After incubation at room temperature for 40 min (to consume the remaining […]) 50 μl of kinase detection reagent were added and incubated for additional 30 minutes to produce luminescence signal. Luminescence was measured with The SpectraMax iD3 Multi-Mode Microplate Reader (Molecular Devices).

hCK2α [2] = molecular target: T1, hCK2α; assay: Relaxation-filtered 1H NMR (transverse relaxation) of peptides in the presence of hCK2α; type: binding; details: for R2,f, relaxation rate in the presence of hCK2α: 25 μM hCK2α, 2.5 mM peptide (100-fold excess), 25 mM Tris-HCl pH 7, 0.25 M NaCl, 10% D2O, global two-exponential fit, higher = stronger binding; for R2,f, relaxation rate in the presence of hCK2α / R2,s, relaxation rate for the free peptide: 25 °C; for Relative binding to hCK2α, in words: relaxation-filtered NMR, compared with the other tested peptides; for R2,s, relaxation rate for the free peptide: same samples, slower component of the global two-exponential fit
Protocol: NMR samples containing tested peptides and hCk2α were prepared in 25 mM Tris–HCl (pH 7, 0.25 M NaCl) buffer with 10% D2O. The protein concentration was 25 μM, and a 100-fold peptide excess (2.5 mM) was used throughout the studies.
The scoring of the peptides’ binding affinities towards hCK2α was done according to the results of ^1H transverse (T2) relaxation filtering experiment. All spectra were recorded at 25 °C on Bruker Avance 500 NMR spectrometer (11.7 T) using 18 delays (0, 1, 2, 3, 4, 5, 10, 15, 20, 25, 30, 35, 40, 45, 50, 100, 150 and 200 ms). The spectra of 7500 Hz spectral width, 16k data points each, were collected using 16 scans with 2.0 s recycling delay preceded by 8 dummy scans.
NMR data were further processed and analyzed with the SpinWorks software (version 4.2.8.0), using cosine-squared window function and Gaussian filter resulting in 0.3 Hz broadening with no solvent filter applied prior to Fourier transformation. We analyzed ^1H transverse relaxation rates of selected nuclei representative for each type of amino acid residues present in the tested peptides, i.e Hγ of Glu (2.3ppm), Hβ of Asp (2.8ppm), Hβ of Ser (3.8ppm), Hγ(CH3) of Thr (1.1 ppm) and Hε of Lys (2.9ppm), respectively. Additionally, the resonance signals of amide protons (8.2–8.9ppm) were also analyzed. We performed the relaxation-filtered experiment, with the relaxation delay varying in the range of 1 to 200 ms. Variation in the intensity of particular resonance signals were analyzed using the model of two-exponential decay (1):1 y=A1⋅exp(t∗R2,f)+A2⋅exp(t∗R2,s)+y0 where R2,s and R2,f are the transverse relaxation rates of the free and the fraction of the virtually bound peptide, respectively. For each peptide the global optimization procedure was applied for all identified resonance signals.

Row | Molecule | R2,f, relaxation rate in the presence of hCK2α (hCK2α [2]) | R2,s, relaxation rate for the free peptide (hCK2α [2]) | also measured
1 | O=C(O)c1c(Br)c(Br)c(Br)c2nn[nH]c12 [7-COOH-Br3Bt] | – | – | IC50 (hCK2α [1]; ADP-Glo, 100 ng hCK2α, 10 μM RRRDDDSDDD, 10 μM ATP, 20 mM MgCl2, pH 7.5, 20 min 30 °C, global fit of three independent experiments): 8 ± 6.3 µM
2 | NC(=O)[C@H](CCC(=O)O)NC(=O)[C@H](CCC(=O)O)NC(=O)[C@H](CCC(=O)O)NC(=O)[C@H](CO)NC(=O)[C@H](CCC(=O)O)NC(=O)[C@@H](N)CCCCNC(=O)c1c(Br)c(Br)c(Br)c2nn[nH]c12 [bi-substrate inhibitor] (H-K(X1)ESEEE-NH2) | – | – | Enhancement of inhibitory activity versus low-mass precursor 7-COOH-Br3Bt (hCK2α [1]; ratio of IC50 values): over 10 fold
3 | DDTDDD-NH2 | 7.1 ± 0.8 s⁻¹ | – | Relative binding to hCK2α, in words (hCK2α [2]): binds visibly weaker
4 | DESEEE-NH2 [peptide named only in b23, possibly a misprint of DETEEE-NH2] | – | – | Relative binding to hCK2α, in words (hCK2α [2]): lower affinity
5 | DETEEE-NH2 | 10.4 ± 1.6 s⁻¹ | 2.2 ± 0.6 s⁻¹ | –
6 | EDTEEE-NH2 | 14.9 ± 2.5 s⁻¹ | 1.5 ± 0.7 s⁻¹ | –
7 | EETDEE-NH2 | 15.4 ± 2.1 s⁻¹ | 2.3 ± 0.5 s⁻¹ | –
8 | EETEDE-NH2 | 17.2 ± 4.8 s⁻¹ | 3.7 ± 0.5 s⁻¹ | –
9 | EETEED-NH2 | 16.1 ± 2.3 s⁻¹ | 2.2 ± 0.5 s⁻¹ | –
